From ChEMBL document CHEMBL4145614, “Cyclopeptides from the Sponge Stylissa flabelliformis” (J Nat Prod, 2018)
Where a SMILES comes first, the peptide text is derived from it.

Experiments:
Aspergillus fumigatus = test: Antifungal activity against Aspergillus fumigatus HIC 6094 measured after 48 to 72 hrs; type: functional
[1] = molecular target: Sodium/potassium-transporting ATPase; test: Inhibition of potassium-activated sodium/potassium ATPase in human placenta using 3-O-methylfluorescein phosphate as substrate measured for 90 secs by fluorescence assay
Bacillus spizizenii = test: Antibacterial activity against Bacillus subtilis ATCC 6633 measured after 24 hrs; type: functional; details: ATCC 6633, 24 h
Micrococcus luteus = test: Antibacterial activity against Micrococcus luteus IFC 12708 measured after 24 hrs; type: functional; details: IFC 12708, 24 h
[2] = tested on: Trichophyton mentagrophytes; test: Antifungal activity against Trichophyton mentagrophytes IFO 40996 measured after 48 to 72 hrs; type: functional
Candida albicans = test: Antifungal activity against Candida albicans ATCC 10231 measured after 48 to 72 hrs; type: functional
SK-HEP1 = test: Cytotoxicity against human SKHEP1 cells after 72 hrs by sulforhodamine B assay; type: functional, cell-based; details: Homo sapiens, SK-HEP1, 72 h
[3] = Inhibition of recombinant bacterial sortase A using Dabcyl-QALPETGEE-Edans as substrate measured after 1 hr by fluorescence assay; parameters: species or system Bacteria
Proteus vulgaris = test: Antibacterial activity against Proteus vulgaris ATCC 3851 measured after 24 hrs; type: functional; details: ATCC 3851, 24 h
Staphylococcus aureus = test: Antibacterial activity against Staphylococcus aureus ATCC 6538P measured after 24 hrs; type: functional
Salmonella typhimurium = test: Antibacterial activity against Salmonella typhimurium ATCC 14028 measured after 24 hrs; type: functional, Salmonella enterica subsp. enterica serovar Typhimurium; details: Salmonella enterica, ATCC 14028, 24 h
A549 = test: cells; details: Homo sapiens, A549, 72 h
Description: Cytotoxicity against human A549 cells after 72 hrs by sulforhodamine B assay

SNU-638 = test: Cytotoxicity against human SNU638 cells after 72 hrs by sulforhodamine B assay; type: functional, cell-based; details: Homo sapiens, SNU-638, 72 h
Trichophyton rubrum = test: Antifungal activity against Trichophyton rubrum IFO 9185 measured after 48 to 72 hrs; type: functional
K562 = test: Cytotoxicity against human K562 cells after 72 hrs by sulforhodamine B assay; type: functional, cell-based; details: Homo sapiens, K562, 72 h
MDA-MB-231 = test: Cytotoxicity against human MDA-MB-231 cells after 72 hrs by sulforhodamine B assay; type: functional, cell-based; details: Homo sapiens, MDA-MB-231, 72 h
Escherichia coli = test: Antibacterial activity against Escherichia coli ATCC 25922 measured after 24 hrs; type: functional; details: ATCC 25922, 24 h
HCT-116 = test: Cytotoxicity against human HCT116 cells after 72 hrs by sulforhodamine B assay; type: functional, cell-based; details: Homo sapiens, HCT-116, 72 h

SMILES | MIC (Aspergillus fumigatus) | IC50 [1] | MIC (Bacillus spizizenii) | MIC (Micrococcus luteus) | MIC [2] | MIC (Candida albicans) | IC50 (SK-HEP1) | IC50 [3] | MIC (Proteus vulgaris) | MIC (Staphylococcus aureus) | MIC (Salmonella typhimurium) | IC50 (A549) | IC50 (SNU-638) | MIC (Trichophyton rubrum) | IC50 (K562) | IC50 (MDA-MB-231) | MIC (Escherichia coli) | IC50 (HCT-116)
CC[C@H](C)[C@@H]1NC(=O)[C@@H]2CCCN2C(=O)[C@H](Cc2ccc(O)cc2)NC(=O)[C@@H]2CCCN2C(=O)[C@H]([C@@H](C)CC)NC(=O)[C@@H]2CCCN2C(=O)[C@H](Cc2ccccc2)NC1=O (HELM PEPTIDE1{F.P.I.P.Y.P.I}$PEPTIDE1,PEPTIDE1,1:R1-7:R2$$$V2.0) | > 128 µM | > 100 µM | > 128 µM | > 128 µM | > 128 µM | > 128 µM | 7.7 µM | > 100 µM | > 128 µM | > 128 µM | > 128 µM | 6.7 µM | 37 µM | > 128 µM | 33 µM | 9.1 µM | > 128 µM | 3.9 µM
CC[C@H](C)[C@@H]1NC(=O)[C@H](C)NC(=O)[C@H](CC(C)C)NC(=O)[C@@H]2CCCN2C(=O)[C@H](CC(=O)O)NC(=O)[C@H](Cc2ccc(O)cc2)NC(=O)[C@@H]2CCCN2C1=O (HELM PEPTIDE1{A.I.P.Y.D.P.L}$PEPTIDE1,PEPTIDE1,1:R1-7:R2$$$V2.0) | > 128 µM | > 100 µM | > 128 µM | > 128 µM | > 128 µM | > 128 µM | > 50 µM | > 100 µM | > 128 µM | > 128 µM | > 128 µM | > 50 µM | > 50 µM | > 128 µM | > 50 µM | > 50 µM | > 128 µM | > 50 µM
CC(C)C[C@@H]1NC(=O)[C@H](CO)NC(=O)[C@@H]2CCCN2C(=O)[C@H](Cc2ccc(O)cc2)NC(=O)[C@H](Cc2ccc(O)cc2)NC(=O)[C@@H]2CCCN2C(=O)[C@H](Cc2ccc(O)cc2)NC1=O (HELM PEPTIDE1{L.Y.P.Y.Y.P.S}$PEPTIDE1,PEPTIDE1,1:R1-7:R2$$$V2.0) | > 128 µM | > 100 µM | > 128 µM | > 128 µM | > 128 µM | > 128 µM | > 50 µM | > 100 µM | > 128 µM | > 128 µM | > 128 µM | > 50 µM | > 50 µM | > 128 µM | > 50 µM | > 50 µM | > 128 µM | > 50 µM
CC[C@H](C)[C@@H]1NC(=O)[C@H](Cc2ccccc2)NC(=O)[C@@H]2CCCN2C(=O)[C@@H]([C@H](C)O)NC(=O)[C@@H]2CCCN2C(=O)[C@H](CO)NC(=O)[C@H](C)NC1=O | > 128 µM | > 100 µM | > 128 µM | > 128 µM | > 128 µM | > 128 µM | 7.2 µM | > 100 µM | > 128 µM | > 128 µM | > 128 µM | 7.4 µM | 24 µM | > 128 µM | 30 µM | 10 µM | > 128 µM | 4.5 µM
CC[C@H](C)[C@@H]1NC(=O)[C@@H]2CCCN2C(=O)[C@H](Cc2ccccc2)NC(=O)[C@@H]2CCCN2C(=O)[C@H](Cc2ccc(O)cc2)NC(=O)[C@@H]2CCCN2C(=O)[C@H]([C@@H](C)CC)NC1=O [PHAKELLISTATIN 2] (HELM PEPTIDE1{F.P.I.I.P.Y.P}$PEPTIDE1,PEPTIDE1,1:R1-7:R2$$$V2.0) | > 128 µM | > 100 µM | > 128 µM | > 128 µM | > 128 µM | > 128 µM | 0.77 µM | > 100 µM | > 128 µM | > 128 µM | > 128 µM | 0.66 µM | 1.6 µM | > 128 µM | 3.2 µM | 1.3 µM | > 128 µM | 0.71 µM
CC[C@H](C)[C@@H]1NC(=O)[C@@H]2CCCN2C(=O)[C@@H]2CCCN2C(=O)[C@H](C(C)C)NC(=O)[C@H](Cc2ccc(O)cc2)NC(=O)[C@@H]2CCCN2C(=O)[C@@H]2CCCN2C(=O)[C@H](CC(C)C)NC(=O)[C@H](C(C)C)NC(=O)[C@H](Cc2ccccc2)NC1=O (HELM PEPTIDE1{F.V.L.P.P.Y.V.P.P.I}$PEPTIDE1,PEPTIDE1,1:R1-10:R2$$$V2.0) | > 128 µM | > 100 µM | > 128 µM | > 128 µM | > 128 µM | > 128 µM | 12 µM | > 100 µM | > 128 µM | > 128 µM | > 128 µM | 1.4 µM | 2.2 µM | > 128 µM | 1.1 µM | 8.6 µM | > 128 µM | 1 µM
